Consider 10 molecules from patent publication US11142515B2, “Pyrazolyl-ureas as kinase inhibitors” (RESPIVERT LIMITED, priority 2014, dated 2021).

Bounds are passed on as bounds.

Experiment [1] concerns the target T1, p38 MAPKα isoform (MAPK14) (Homo sapiens, UniProt Q16539).
T1 construct: purchased Life Technologies
In words: p38 MAPKα enzyme inhibition (Z-LYTE FRET). The class given is biochemical. Conditions: Table 2B, unit inferred; read-out: p38 MAPKα (Enzyme Profile). The procedure, abridged: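 Recombinant human MAPK14 (40 ng/mL stock) was preincubated 2 h at RT with compound (stock dilutions 0.0012-40 μg/mL). The Z-LYTE FRET read-out used a MAPKAP-K2-derived peptide, and protease development for 1 h cleaved only non-phosphorylated peptide. Phosphorylation was calculated from the coumarin/fluorescein emission ratio.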

A further experiment concerns the target T2, p38MAPKγ (MAPK12) (Homo sapiens, UniProt P53778).
T2 construct: purchased Life Technologies
T2 sequence (P53778 1-367): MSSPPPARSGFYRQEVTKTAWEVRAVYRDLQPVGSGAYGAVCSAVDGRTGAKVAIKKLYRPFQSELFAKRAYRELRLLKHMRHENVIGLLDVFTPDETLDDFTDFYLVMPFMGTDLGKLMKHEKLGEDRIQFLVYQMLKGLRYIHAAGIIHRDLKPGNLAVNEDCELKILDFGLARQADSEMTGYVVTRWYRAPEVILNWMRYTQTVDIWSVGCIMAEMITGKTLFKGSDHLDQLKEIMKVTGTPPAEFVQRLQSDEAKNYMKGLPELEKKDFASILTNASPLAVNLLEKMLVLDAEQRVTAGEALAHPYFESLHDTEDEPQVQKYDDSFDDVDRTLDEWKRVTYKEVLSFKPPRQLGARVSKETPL
As to the kind of experiment: p38 MAPKγ enzyme inhibition (Z-LYTE FRET). It is filed as biochemical. Particulars: Table 2B, unit inferred; read-out: p38 MAPKγ (Enzyme Profile). The procedure, abridged:
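Z-LYTE read-out: after 1 h protease development, only non-phosphorylated peptide is cleaved, and the donor/acceptor (coumarin/fluorescein) ratio reports phosphorylation. Beforehand, enzyme and compound (stock concentrations 0.0012–40 μg/mL) were preincubated 2 h at RT, then the kinase reaction ran 1 h at RT with peptide and ATP (8 μM and 400 μM stocks).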

T1 sequence (Q16539 whole entry, canonical isoform): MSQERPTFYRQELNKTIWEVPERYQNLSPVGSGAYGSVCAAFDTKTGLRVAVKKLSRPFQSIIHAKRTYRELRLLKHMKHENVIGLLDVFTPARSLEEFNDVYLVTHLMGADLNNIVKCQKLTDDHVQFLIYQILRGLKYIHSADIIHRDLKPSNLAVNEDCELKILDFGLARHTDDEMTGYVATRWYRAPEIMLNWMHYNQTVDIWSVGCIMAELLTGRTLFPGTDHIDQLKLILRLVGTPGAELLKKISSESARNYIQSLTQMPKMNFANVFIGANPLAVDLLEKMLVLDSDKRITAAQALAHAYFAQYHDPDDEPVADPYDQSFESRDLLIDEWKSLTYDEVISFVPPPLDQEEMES

Take `CCOc1cccc(-n2nc(C(C)(C)C)cc2NC(=O)Nc2ccc(OCc3ccnc(Nc4cnccn4)c3)c3ccccc23)c1` [Example 184, 1-(3-(tert-butyl)-1-(3-ethoxyphenyl)-1H-pyrazol-5-yl)-3-(4-((2-(pyrazin-2-ylamino)pyridin-4-yl)methoxy)naphthalen-1-yl) urea]: the IC50 was 0.019 µM in experiment [1] and more than 15.9 µM at p38MAPKγ (MAPK12).

Turning to `CCc1ccc(-n2nc(C(C)(C)C)cc2NC(=O)Nc2ccc(OCc3ccnc(Nc4cnc(CO)cn4)c3)c3ccccc23)cc1` [Example 164, 1-(3-(tert-butyl)-1-(4-ethylphenyl)-1H-pyrazol-5-yl)-3-(4-((2-((5-(hydroxymethyl)pyrazin-2-yl)amino)pyridin-4-yl)methoxy)naphthalen-1-yl) urea], the IC50 in experiment [1] stood at 0.0068 µM; on p38MAPKγ (MAPK12) it was 2.34 µM.

Consider `CCc1cccc(-n2nc(C(C)(C)C)cc2NC(=O)Nc2ccc(OCc3ccnc(Nc4cncc(CC)n4)c3)c3ccccc23)c1` [Example 234, 1-(3-(tert-butyl)-1-(3-ethyl-phenyl)-1H-pyrazol-5-yl)-3-(4-((2-((6-ethylpyrazin-2-yl)amino)pyridin-4-yl)methoxy)naphthalen-1-yl)urea], for which the IC50 was 0.064 µM in experiment [1] and more than 15.6 µM on p38MAPKγ (MAPK12).

Take `COCc1cccc(-n2nc(C(C)(C)C)cc2NC(=O)Nc2ccc(OCc3ccnc(Nc4cnc(C(=O)N5CCCC5)cn4)c3)c3ccccc23)c1` [Example 71]: the IC50 in experiment [1] was 0.024 µM; on p38MAPKγ (MAPK12) it was 0.272 µM.

Regarding `CCCc1cncc(Nc2cc(COc3ccc(NC(=O)Nc4cc(C(C)(C)C)nn4-c4ccc(C)cc4)c4ccccc34)ccn2)n1` [Example 172, 1-(3-(tert-butyl)-1-(p-tolyl)-1H-pyrazol-5-yl)-3-(4-((2-((6-propylpyrazin-2-yl)amino)pyridin-4-yl)methoxy)naphthalen-1-yl) urea], the values for the IC50 (in experiment [1]; on p38MAPKγ (MAPK12)) were 0.031 µM and 0.169 µM, respectively.

As to `Cc1ccc(-n2nc(C(C)(C)C)cc2NC(=O)Nc2ccc(OCc3ccnc(Nc4cnc(C(=O)N5C[C@@H](O)[C@H](O)C5)cn4)c3)c3ccccc23)cc1` [Example 248, 1-(3-(tert-butyl)-1-(p-tolyl)-1H-pyrazol-5-yl)-3-(4-((2-((5-((3R,4R)-3,4-dihydroxy-pyrrolidine-1-carbonyl)pyrazin-2-yl)amino)pyridin-4-yl)methoxy)naphthalen-1-yl)urea], the values for the IC50 (in experiment [1]; on p38MAPKγ (MAPK12)) were 0.0047 µM and 0.051 µM, respectively.

With `Cc1ccc(-n2nc(C(C)(C)C)cc2NC(=O)Nc2ccc(OCc3ccnc(Nc4cnc(C(=O)N5CC[C@@H](O)C5)cn4)c3)c3ccccc23)cc1` [Example 162, (R)-1-(3-(tert-butyl)-1-(p-tolyl)-1H-pyrazol-5-yl)-3-(4-((2-((5-(3-hydroxypyrrolidine-1-carbonyl)pyrazin-2-yl)amino)pyridin-4-yl)methoxy)naphthalen-1-yl)urea], the IC50 in experiment [1] amounted to 0.0047 µM; at p38MAPKγ (MAPK12), 0.037 µM.

On to `CCc1cncc(Nc2cc(COc3ccc(NC(=O)Nc4cc(C(C)(C)C)nn4-c4ccc(C)c(OC)c4)c4ccccc34)ccn2)n1` [Example 70], for which the IC50 was found to be 0.07 µM in experiment [1] and 0.372 µM on p38MAPKγ (MAPK12).

Consider `CCc1cncc(Nc2cc(COc3ccc(NC(=O)Nc4cc(C(C)(C)C)nn4-c4cc(C)cc(OC)c4)c4ccccc34)ccn2)n1` [Example 221, 1-(3-(tert-butyl)-1-(3-methoxy-5-methylphenyl)-1H-pyrazol-5-yl)-3-(4-((2-((6-ethylpyrazin-2-yl)amino)pyridin-4-yl)methoxy)naphthalen-1-yl)urea], for which the values for the IC50 (in experiment [1]; on p38MAPKγ (MAPK12)) were 0.081 µM and 1.27 µM, respectively.

As for `Cc1ccc(-n2nc(C(C)(C)C)cc2NC(=O)Nc2ccc(OCc3ccnc(Nc4cnc(C(=O)N5CCCCC5)cn4)c3)c3ccccc23)cc1` [Example 137, 1-(3-(tert-butyl)-1-(p-tolyl)-1H-pyrazol-5-yl)-3-(4-((2-((5-(piperidine-1-carbonyl)pyrazin-2-yl)amino)pyridin-4-yl)methoxy)naphthalen-1-yl)urea], the IC50 was 0.006 µM in experiment [1] and more than 14.1 µM on p38MAPKγ (MAPK12).
